Measurements taken from EP4417602A1, “SUBSTITUTED PYRAZOLE CARBOXAMIDES, SALTS THEREOF AND THEIR USE AS HERBICIDALLY ACTIVE SUBSTANCES” (Bayer AG, priority 2023, dated 2024).

Columns and labels:
TRZAS [1] = assay: D. Pre-emergence effects on crop plants (Tables D); format: in vivo, Triticum aestivum; details: crop plant
Excerpt: (§1) Seeds of mono- and dicotyledonous weed plants and crop plants were sown, in plastic or organic planting pots, in sandy loam and covered with soil. The compounds according to the invention, formulated in the form of wettable powders (WP) or as emulsifiable concentrates (EC), were applied to the surface of the covering soil as aqueous suspension or emulsion, with the addition of 0.5% of an additive, at an application rate of 6001 of water/ha (converted).
(§2) Following treatment, the pots were placed in a greenhouse and kept under optimum growth conditions for the test plants. The visual grading of the damage to the test plants was carried out after ca. 3 weeks in comparison to untreated controls (herbicidal effect in percent (%): 100% effect = plants have died off, 0% effect = as control plants).
(§3) Tables D1 to D5 below show the effects of various compounds of the general formula (I) according to Table 1 on various crop plants and an application rate corresponding to 320 g/ha or below obtained by the experimental procedure mentioned above in Biological Examples, Section C. Table D1a: pre-emergence activity at 320g/ha against ZEAMX in %

ZEAMX [2] = assay: F. Post-emergence effects on crop plants (Tables F); format: in vivo, Zea mays; details: crop plant
Excerpt: (§4) Seeds of mono- and dicotyledonous weed plants and crop plants were sown, in plastic or organic planting pots, in sandy loam, covered with soil and grown in a greenhouse under controlled growth conditions. 2 to 3 weeks after sowing, the test plants were sprayed in the single-leaf stage. The compounds according to the invention, formulated in form of wettable powders (WP) or as emulsifiable concentrates (EC), were sprayed onto the green plant parts as aqueous suspension or emulsion, with the addition of 0.5% of an additive, at an application rate of 6001 of water/ha (converted). The test plants were placed in the greenhouse for ca. 3 weeks under optimum growth conditions, and then the effect of the preparations was assessed visually in comparison with untreated controls (herbicidal effect in percent (%): 100% effect = plants have died off, 0% effect = as control plants). Tables F1 to F5 below show the effects of selected compounds of the general formula (I) according to table 1 on various crop plants and an application rate corresponding to 320 g/ha or below obtained by the experimental procedure mentioned above. Table […]: post-emergence activity at 320g/ha against ZEAMX in %

BRSNW [3] = assay: as above; format: in vivo, Brassica napus; details: application rate 320 g/ha, crop plant
Excerpt: as §4

GLXMA [4] = assay: D. Pre-emergence effects on crop plants (Tables D); format: in vivo, Glycine max; details: crop plant
Excerpt: as §1, §2, §3

TRZAS [5] = assay: F. Post-emergence effects on crop plants (Tables F); format: in vivo, Triticum aestivum; details: crop plant
Excerpt: as §4

GLXMA [6] = assay: as above; format: in vivo, Glycine max; details: application rate 320 g/ha, crop plant
Excerpt: as §4

BRSNW [7] = assay: D. Pre-emergence effects on crop plants (Tables D); format: in vivo, Brassica napus; details: crop plant
Excerpt: as §1, §2, §3

ZEAMX [8] = assay: D. Pre-emergence effects on crop plants (Tables D); format: in vivo, Zea mays; details: crop plant
Excerpt: as §1, §2, §3

- pre-emergence activity against TRZAS (TRZAS [1]; application rate 80 g/ha, Table D2b): 0%
- pre-emergence activity against TRZAS (TRZAS [1]; application rate 320 g/ha, Table D2a): 0%
- pre-emergence activity against GLXMA (GLXMA [4]; application rate 80 g/ha, Table D4b): 0%
- pre-emergence activity against GLXMA (GLXMA [4]; application rate 320 g/ha, Table D4a): 0%
- pre-emergence activity against ZEAMX (ZEAMX [8]; application rate 80 g/ha, Table D1b): 0%
- pre-emergence activity against ZEAMX (ZEAMX [8]; application rate 320 g/ha, Table D1a): 0%
Compound: Cn1cc(C(=O)N2CCCC2Cc2ccccc2F)c(COCC2COC2)n1 (racemic) [Example I-091]
- post-emergence activity against ZEAMX in % (ZEAMX [2]; application rate 80 g/ha): 0%
- post-emergence activity against ZEAMX in % (ZEAMX [2]; application rate 320 g/ha): 0%
- post-emergence activity against BRSNW in % (BRSNW [3]): 0%
- post-emergence activity against TRZAS in % (TRZAS [5]; application rate 80 g/ha): 0%
- post-emergence activity against TRZAS in % (TRZAS [5]; application rate 320 g/ha): 0%
- post-emergence activity against GLXMA in % (GLXMA [6]): 0%
- pre-emergence activity against BRSNW in % (BRSNW [7]; application rate 80 g/ha): 0%
- pre-emergence activity against BRSNW in % (BRSNW [7]; application rate 320 g/ha): 0%
